The record followed here is US7999128B2, “Hydroxybenzophenone derivatives” (BASF SE, priority 2006, dated 2011).

Data set [1] can be described thus: UV absorption (λmax, E 1/1). Format: physicochemical. The settings on record: for E 1/1: at λmax.
The nature of data set [2]: Solubility in Cyclomethicone. Format: physicochemical. The settings on record: at RT.

For `CCN(CC)c1ccc(C(=O)c2ccccc2C(=O)OCCC[Si](C)(C)C)c(O)c1` [Example A1], in data set [1], the λmax is listed as 350 nm and the “E 1/1” value was determined as 822. In addition, in data set [2], the “solubility in Cyclomethicone” value is 1.8%.

Turning to `CCN(CC)c1ccc(C(=O)c2ccccc2C(=O)OCCOC(=O)C(C)C[Si](C)(O[Si](C)(C)C)O[Si](C)(C)C)c(O)c1` (centres unmarked) [Example A2], in data set [1], the λmax worked out at 350 nm and the “E 1/1” value was determined as 571. Further, in data set [2], the “solubility in Cyclomethicone” value was more than 20%.

Take `CCN(CC)c1ccc(C(=O)c2ccccc2C(=O)OCCOC(=O)C(C)C[Si](C)(O[Si](C)(C)C)O[Si](C)(C)C)c(O)c1` (centres unmarked) [Example A3]: in data set [1], the λmax is reported as 357 nm and the “E 1/1” value was determined as 606.
